Assay results taken from patent US20230257347A1 (priority 2020, published 2023).
Counter-ions that a name gives are not always drawn.

Tests used:
[1] = molecular target: T1, Muscarinic acetylcholine Receptor M2 (CHRM2) (Homo sapiens, UniProt P08172); assay: cAMP assay, CHRM2; format: cell-based
T1 sequence (P08172 1-466): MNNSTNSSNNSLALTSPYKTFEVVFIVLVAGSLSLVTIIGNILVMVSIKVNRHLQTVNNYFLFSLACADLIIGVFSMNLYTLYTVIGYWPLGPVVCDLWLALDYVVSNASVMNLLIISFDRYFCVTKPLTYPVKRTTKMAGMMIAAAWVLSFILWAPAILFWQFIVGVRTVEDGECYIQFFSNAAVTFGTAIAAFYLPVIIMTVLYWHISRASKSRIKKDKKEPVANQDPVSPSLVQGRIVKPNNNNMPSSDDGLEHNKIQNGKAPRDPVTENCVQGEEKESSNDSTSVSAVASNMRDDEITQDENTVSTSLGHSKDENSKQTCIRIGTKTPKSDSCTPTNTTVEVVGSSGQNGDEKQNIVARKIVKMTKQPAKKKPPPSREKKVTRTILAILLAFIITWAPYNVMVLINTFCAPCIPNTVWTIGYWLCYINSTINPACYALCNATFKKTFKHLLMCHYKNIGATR

[2] = molecular target: T2, human 5-HT2A (Homo sapiens, UniProt P28223); assay: 5-HT2A agonist effect measured by HTRF as changes in IP1, HEK-293 cells; format: cell-based; conditions: 3.0E-05 M; control 10 μM serotonin; 30 min at 37° C.; duplicate averaged
T2 construct: expressed in transfected cells; host or cells: HEK-293
Description: Potential agonist effects of BK-5F-NM-AMT, BK-5F-NM-AMT, and BK-5F-NM-AMT at 5-HT2A receptors was measured by HTRF as changes in IPl. The effects were measured using human 5-HT2A expressed in HEK-293 cells, based on methods reported in Porter et al. British Journal of Pharmacology, 1999. 128(1), 13-20. Incubation was 30 min at 37° C. 10 μM serotonin was used as a positive control. The tryptamine derivatives were each tested at six concentrations from 3.0E-10 to 3.0E-05 M using log steps. All assays were performed in duplicate with results averaged.

[3] = molecular target: Cannabinoid Receptor 1 (CNR1) (Homo sapiens, UniProt P21554); assay: cAMP assay, CNR1; format: cell-based
[4] = molecular target: Adrenergic Receptor β2 (ADRB2) (Homo sapiens, UniProt P07550); assay: cAMP assay, ADRB2; format: cell-based
[5] = molecular target: T3, CAMP-specific 3′,5′-cyclic phospho-diesterase (PDE4D2) (Homo sapiens, UniProt Q08499); assay: Enzymatic assay, PDE4D2; format: biochemical
T3 construct: purchased Signal Chem

[6] = molecular target: Dopamine Receptor D1 (DRD1) (Homo sapiens, UniProt P21728); assay: cAMP assay, DRD1; format: cell-based
[7] = molecular target: T4, CGMP-inhibited cyclic nucleotide phosphodiesterase 3A (PDE3A) (Homo sapiens, UniProt Q14432); assay: Enzymatic assay, PDE3A; format: biochemical
T4 construct: purchased Signal Chem

[8] = molecular target: Opioid Receptor Delta 1 (OPRD1) (Homo sapiens, UniProt P41143); assay: cAMP assay, OPRD1; format: cell-based
[9] = molecular target: T5, Acetylcholinesterase (AChE) (Homo sapiens, UniProt P22303); assay: Enzymatic assay, AChE; format: biochemical
T5 construct: purchased R&D Systems

[10] = molecular target: T6, Cyclooxygenase 2 (COX2) (Homo sapiens, UniProt P35354); assay: Enzymatic assay, COX2; format: biochemical
T6 construct: purchased BPS Bioscience
T6 sequence (P35354 18-604): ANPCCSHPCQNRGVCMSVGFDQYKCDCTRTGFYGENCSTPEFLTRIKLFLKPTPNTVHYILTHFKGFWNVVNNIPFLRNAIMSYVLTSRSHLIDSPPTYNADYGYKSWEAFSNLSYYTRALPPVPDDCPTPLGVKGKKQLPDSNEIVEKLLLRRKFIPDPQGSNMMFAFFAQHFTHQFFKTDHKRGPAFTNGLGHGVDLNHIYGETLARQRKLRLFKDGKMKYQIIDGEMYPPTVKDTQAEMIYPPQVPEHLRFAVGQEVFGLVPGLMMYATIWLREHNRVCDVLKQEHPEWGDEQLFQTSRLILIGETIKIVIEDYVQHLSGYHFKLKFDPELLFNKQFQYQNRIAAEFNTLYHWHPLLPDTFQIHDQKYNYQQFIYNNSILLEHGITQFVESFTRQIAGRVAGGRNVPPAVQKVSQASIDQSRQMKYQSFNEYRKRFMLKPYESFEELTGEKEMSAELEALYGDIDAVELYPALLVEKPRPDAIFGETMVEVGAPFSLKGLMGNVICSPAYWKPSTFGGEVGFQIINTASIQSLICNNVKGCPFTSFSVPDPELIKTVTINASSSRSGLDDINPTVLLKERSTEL

[11] = molecular target: Dopamine Receptor D2 (DRD2S) (Homo sapiens, UniProt P14416); assay: cAMP assay, DRD2S; format: cell-based
[12] = molecular target: T7, Endothelin Receptor Type A (EDNRA) (Homo sapiens, UniProt P25101); assay: Calcium flux assay, EDNRA; format: cell-based
T7 sequence (P25101 21-427): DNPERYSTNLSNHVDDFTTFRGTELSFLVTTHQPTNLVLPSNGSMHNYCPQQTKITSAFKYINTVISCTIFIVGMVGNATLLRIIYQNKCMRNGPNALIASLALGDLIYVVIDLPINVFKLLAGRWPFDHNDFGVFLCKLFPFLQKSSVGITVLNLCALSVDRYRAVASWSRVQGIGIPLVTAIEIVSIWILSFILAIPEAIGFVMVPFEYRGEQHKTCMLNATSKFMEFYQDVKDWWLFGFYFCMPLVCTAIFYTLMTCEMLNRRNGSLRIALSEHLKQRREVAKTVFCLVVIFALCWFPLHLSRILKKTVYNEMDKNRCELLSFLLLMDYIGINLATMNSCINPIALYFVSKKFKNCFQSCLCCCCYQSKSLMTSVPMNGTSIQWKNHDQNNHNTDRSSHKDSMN

T5 sequence (P22303 32-614): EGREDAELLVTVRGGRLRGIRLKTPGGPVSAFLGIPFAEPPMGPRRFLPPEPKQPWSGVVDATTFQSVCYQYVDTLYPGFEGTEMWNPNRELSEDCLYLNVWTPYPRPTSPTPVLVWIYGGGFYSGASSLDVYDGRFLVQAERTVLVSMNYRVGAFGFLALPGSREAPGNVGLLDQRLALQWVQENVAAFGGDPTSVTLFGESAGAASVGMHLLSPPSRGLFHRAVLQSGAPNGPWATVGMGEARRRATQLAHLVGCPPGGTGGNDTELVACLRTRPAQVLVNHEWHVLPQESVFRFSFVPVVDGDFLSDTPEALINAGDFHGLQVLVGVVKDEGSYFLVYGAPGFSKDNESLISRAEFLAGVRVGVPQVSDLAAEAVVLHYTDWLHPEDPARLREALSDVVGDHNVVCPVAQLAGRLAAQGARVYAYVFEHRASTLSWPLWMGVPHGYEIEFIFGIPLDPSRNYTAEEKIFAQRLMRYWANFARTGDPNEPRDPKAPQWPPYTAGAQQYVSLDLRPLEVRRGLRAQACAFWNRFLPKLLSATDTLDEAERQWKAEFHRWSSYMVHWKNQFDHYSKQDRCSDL
Dopamine Receptor D2 (DRD2S), sequence (P14416 1-414 isoform P14416-2): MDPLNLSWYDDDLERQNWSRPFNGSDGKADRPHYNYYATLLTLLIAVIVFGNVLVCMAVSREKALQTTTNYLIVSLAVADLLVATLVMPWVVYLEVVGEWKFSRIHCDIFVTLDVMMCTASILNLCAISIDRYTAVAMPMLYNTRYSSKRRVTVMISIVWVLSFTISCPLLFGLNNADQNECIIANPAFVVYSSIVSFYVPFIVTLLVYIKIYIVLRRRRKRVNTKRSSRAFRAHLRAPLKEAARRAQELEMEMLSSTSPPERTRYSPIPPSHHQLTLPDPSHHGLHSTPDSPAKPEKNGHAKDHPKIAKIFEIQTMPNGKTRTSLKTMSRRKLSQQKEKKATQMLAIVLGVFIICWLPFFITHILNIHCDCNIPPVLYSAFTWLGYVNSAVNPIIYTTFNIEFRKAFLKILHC
Dopamine Receptor D1 (DRD1), sequence (P21728 whole entry): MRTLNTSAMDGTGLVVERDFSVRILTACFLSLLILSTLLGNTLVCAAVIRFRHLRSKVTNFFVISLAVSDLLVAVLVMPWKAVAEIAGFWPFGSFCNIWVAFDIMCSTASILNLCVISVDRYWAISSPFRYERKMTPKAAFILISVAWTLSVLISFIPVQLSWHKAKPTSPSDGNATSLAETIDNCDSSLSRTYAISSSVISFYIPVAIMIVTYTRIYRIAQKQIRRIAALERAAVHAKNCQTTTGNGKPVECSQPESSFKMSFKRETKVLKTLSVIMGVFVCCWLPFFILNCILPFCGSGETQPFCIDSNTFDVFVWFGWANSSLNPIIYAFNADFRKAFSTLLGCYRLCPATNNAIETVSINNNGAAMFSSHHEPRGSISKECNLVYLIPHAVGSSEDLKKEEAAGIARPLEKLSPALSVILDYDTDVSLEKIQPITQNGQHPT
Adrenergic Receptor β2 (ADRB2), sequence (P07550 whole entry): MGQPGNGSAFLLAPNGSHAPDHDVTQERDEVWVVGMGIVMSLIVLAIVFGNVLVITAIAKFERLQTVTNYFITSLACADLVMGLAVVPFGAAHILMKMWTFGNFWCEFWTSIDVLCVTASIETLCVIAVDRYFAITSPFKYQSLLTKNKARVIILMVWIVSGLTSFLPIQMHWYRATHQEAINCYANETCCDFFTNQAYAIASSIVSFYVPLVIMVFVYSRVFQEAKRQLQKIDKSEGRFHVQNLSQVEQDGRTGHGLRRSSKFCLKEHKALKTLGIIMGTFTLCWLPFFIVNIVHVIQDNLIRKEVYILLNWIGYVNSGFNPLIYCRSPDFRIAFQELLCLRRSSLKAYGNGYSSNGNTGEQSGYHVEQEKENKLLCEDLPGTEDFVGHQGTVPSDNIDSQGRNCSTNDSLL
T2 sequence (P28223 whole entry, looked up): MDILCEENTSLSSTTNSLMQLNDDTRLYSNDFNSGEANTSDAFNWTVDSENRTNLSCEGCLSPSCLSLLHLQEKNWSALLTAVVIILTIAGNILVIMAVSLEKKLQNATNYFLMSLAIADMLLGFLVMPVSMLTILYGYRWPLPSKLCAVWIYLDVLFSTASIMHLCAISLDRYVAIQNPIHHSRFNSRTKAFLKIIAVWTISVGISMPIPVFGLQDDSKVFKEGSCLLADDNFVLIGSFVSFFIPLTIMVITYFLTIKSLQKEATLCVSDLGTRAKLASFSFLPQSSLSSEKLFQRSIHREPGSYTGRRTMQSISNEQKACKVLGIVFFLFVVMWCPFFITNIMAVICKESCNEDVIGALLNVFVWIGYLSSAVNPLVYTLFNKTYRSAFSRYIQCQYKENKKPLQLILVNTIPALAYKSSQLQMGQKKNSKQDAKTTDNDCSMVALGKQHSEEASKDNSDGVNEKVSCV
Cannabinoid Receptor 1 (CNR1), sequence (P21554 whole entry): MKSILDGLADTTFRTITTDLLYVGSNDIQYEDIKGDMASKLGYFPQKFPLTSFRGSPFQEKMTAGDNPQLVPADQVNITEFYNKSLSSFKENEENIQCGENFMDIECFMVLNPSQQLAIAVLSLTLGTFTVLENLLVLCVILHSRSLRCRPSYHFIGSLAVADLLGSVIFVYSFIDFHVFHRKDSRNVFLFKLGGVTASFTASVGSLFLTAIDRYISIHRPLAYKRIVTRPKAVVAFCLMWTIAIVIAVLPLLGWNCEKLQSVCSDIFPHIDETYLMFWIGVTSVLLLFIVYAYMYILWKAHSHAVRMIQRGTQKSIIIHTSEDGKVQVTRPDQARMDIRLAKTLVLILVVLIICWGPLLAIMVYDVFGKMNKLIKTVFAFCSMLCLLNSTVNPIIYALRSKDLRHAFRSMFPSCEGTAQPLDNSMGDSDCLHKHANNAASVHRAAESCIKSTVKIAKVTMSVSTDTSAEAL
Opioid Receptor Delta 1 (OPRD1), sequence (P41143 whole entry): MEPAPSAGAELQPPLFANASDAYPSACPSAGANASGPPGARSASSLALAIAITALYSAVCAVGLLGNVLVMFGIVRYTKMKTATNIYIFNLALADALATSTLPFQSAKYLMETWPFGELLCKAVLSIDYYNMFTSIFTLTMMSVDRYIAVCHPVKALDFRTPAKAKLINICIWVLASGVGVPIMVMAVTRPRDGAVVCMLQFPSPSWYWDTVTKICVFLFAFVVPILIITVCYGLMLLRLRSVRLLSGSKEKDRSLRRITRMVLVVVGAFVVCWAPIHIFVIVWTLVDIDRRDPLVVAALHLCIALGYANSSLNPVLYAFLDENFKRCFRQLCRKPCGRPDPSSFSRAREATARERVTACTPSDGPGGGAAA
T4 sequence (Q14432 whole entry): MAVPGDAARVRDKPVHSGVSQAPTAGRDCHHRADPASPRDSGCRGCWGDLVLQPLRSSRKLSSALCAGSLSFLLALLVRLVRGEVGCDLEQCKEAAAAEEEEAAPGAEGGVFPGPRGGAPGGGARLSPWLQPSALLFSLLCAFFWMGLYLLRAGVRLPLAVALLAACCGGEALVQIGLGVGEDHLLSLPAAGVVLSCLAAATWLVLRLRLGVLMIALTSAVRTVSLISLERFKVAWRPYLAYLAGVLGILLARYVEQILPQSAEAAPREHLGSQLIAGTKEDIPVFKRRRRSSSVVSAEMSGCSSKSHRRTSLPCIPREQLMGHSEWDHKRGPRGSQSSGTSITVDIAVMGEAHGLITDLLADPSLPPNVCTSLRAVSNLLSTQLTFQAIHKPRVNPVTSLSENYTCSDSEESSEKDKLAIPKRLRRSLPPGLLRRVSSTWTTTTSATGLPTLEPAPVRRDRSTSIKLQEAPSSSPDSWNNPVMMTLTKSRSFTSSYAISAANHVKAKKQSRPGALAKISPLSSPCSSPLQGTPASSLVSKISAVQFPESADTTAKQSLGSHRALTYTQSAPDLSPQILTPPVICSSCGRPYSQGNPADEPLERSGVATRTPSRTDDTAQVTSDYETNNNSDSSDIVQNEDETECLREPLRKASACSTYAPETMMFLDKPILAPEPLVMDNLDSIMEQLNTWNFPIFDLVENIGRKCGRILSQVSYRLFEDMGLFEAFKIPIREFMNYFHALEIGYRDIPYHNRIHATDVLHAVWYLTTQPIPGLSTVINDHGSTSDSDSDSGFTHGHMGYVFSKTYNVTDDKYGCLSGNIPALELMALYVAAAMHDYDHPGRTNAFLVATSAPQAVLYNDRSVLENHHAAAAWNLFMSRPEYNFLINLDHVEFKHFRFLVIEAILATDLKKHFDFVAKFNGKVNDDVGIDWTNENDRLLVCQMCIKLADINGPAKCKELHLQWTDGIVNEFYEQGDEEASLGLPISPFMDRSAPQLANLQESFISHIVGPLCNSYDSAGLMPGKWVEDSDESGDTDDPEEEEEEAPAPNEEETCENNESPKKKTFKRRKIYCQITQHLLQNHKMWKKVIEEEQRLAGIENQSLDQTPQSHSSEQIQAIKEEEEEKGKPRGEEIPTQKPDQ
T3 sequence (Q08499 303-809 limits assumed): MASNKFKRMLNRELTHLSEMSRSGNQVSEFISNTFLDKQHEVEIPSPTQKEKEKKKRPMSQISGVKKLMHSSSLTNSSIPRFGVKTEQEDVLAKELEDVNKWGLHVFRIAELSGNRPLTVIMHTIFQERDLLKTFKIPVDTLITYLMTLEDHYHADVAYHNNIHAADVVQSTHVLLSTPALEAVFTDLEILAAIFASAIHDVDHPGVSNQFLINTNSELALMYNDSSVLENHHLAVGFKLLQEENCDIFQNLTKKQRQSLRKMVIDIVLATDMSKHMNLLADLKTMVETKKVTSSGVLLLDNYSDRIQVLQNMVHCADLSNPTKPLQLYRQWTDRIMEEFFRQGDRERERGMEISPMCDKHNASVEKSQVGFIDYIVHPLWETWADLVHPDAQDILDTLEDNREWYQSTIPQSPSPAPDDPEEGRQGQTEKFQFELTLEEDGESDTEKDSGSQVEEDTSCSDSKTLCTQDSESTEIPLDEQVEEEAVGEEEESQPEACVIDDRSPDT

CNC(C)C(=O)c1c[nH]c2ccc(Br)cc12 (stereo not drawn) [BK-5Br-NM-AMT, 1-(5-bromo-1H-indol-3-yl)-2-(methylamino) propan-1-one hydrochloride]
EC50 [1]: > 10 µM
IC50 [1]: > 10 µM
Signal changes at the highest tested concentration [2]: −1.1 % of control
EC50 [3]: > 10 µM
IC50 [3]: > 10 µM
EC50 [4]: > 10 µM
IC50 [4]: 5.44 µM
IC50 [5]: > 10 µM
EC50 [6]: > 10 µM
IC50 [6]: 9.7 µM
IC50 [7]: > 10 µM
EC50 [8]: > 10 µM
IC50 [8]: > 10 µM
IC50 [9]: > 10 µM
IC50 [10]: > 10 µM
EC50 [11]: > 10 µM
IC50 [11]: 4.26 µM
EC50 [12]: > 10 µM
IC50 [12]: > 10 µM

CNC(C)C(=O)c1c[nH]c2ccc(Cl)cc12 (stereo not drawn) [BK-5Cl-NM-AMT, 1-(5-chloro-1H-indol-3-yl)-2-(methylamino) propan-1-one hydrochloride]
EC50 [1]: > 10 µM
IC50 [1]: > 10 µM
Signal changes at the highest tested concentration [2]: 1.3 % of control
EC50 [3]: > 10 µM
IC50 [3]: > 10 µM
EC50 [4]: > 10 µM
IC50 [4]: 8.68 µM
IC50 [5]: > 10 µM
EC50 [6]: > 10 µM
IC50 [6]: > 10 µM
IC50 [7]: > 10 µM
EC50 [8]: > 10 µM
IC50 [8]: > 10 µM
IC50 [9]: > 10 µM
IC50 [10]: > 10 µM
EC50 [11]: > 10 µM
IC50 [11]: 6.22 µM
EC50 [12]: > 10 µM
IC50 [12]: > 10 µM

CNC(C)C(=O)c1c[nH]c2ccc(F)cc12 (stereo not drawn) [BK-5F-NM-AMT, 1-(5-Fluoro-1H-indol-3-yl)-2-(methylamino) propan-1-one hydrochloride]
EC50 [1]: > 10 µM
IC50 [1]: > 10 µM
Signal changes at the highest tested concentration [2]: −0.8 % of control
EC50 [3]: > 10 µM
IC50 [3]: > 10 µM
EC50 [4]: > 10 µM
IC50 [4]: > 10 µM
IC50 [5]: > 10 µM
EC50 [6]: > 10 µM
IC50 [6]: > 10 µM
IC50 [7]: > 10 µM
EC50 [8]: > 10 µM
IC50 [8]: > 10 µM
IC50 [9]: > 10 µM
IC50 [10]: > 10 µM
EC50 [11]: > 10 µM
IC50 [11]: 5.2 µM
EC50 [12]: > 10 µM
IC50 [12]: > 10 µM
